The text below walks through data of ChEMBL document CHEMBL5634160, “Synthesis, biological evaluation and action mechanism of 7H-[1,2,4] triazolo [3,4-b] [1,3,4] thiadiazine-phenylhydrazone derivatives as α-glucosidase inhibitors” (Eur J Med Chem, 2023).

One may read the IC50 as the concentration that gives 50% inhibition.

The target in the assay is Alpha-glucosidase (Saccharomyces cerevisiae S288c, UniProt P53341+P38158+P07265). In words: Inhibition of Saccharomyces cerevisiae alpha-glucosidase using nitrophenol-alpha-D-glucopyranoside (pNPG) as substrate incubated for 15 mins. Type of assay: protein assay.

In turn, `Clc1cccc(/C=N/Nc2nnc3n2N=C(c2ccccc2)CS3)c1` gave a half-maximal inhibitory concentration (IC50) of 42.36 µM.

On to `Brc1ccccc1/C=N/Nc1nnc2n1N=C(c1ccccc1)CS2`, for which the IC50 amounted to 32.12 µM.

As for `COc1ccc(/C=N/Nc2nnc3n2N=C(c2ccccc2)CS3)cc1`, the IC50 was determined as 85.86 µM.

`Fc1ccccc1/C=N/Nc1nnc2n1N=C(c1ccccc1)CS2` registered an IC50 greater than 250 µM.

Turning to `COc1cc(/C=N/Nc2nnc3n2N=C(c2ccccc2)CS3)cc(OC)c1OC`, the IC50 came out at 91.47 µM.

`Fc1ccc(/C=N/Nc2nnc3n2N=C(c2ccccc2)CS3)cc1` came in with a concentration for half-maximal inhibition (IC50) of 50.24 µM.

Molecule `CN(C)c1ccc(/C=N/Nc2nnc3n2N=C(c2ccccc2)CS3)cc1` showed an IC50 of 35.58 µM.

Take `Oc1ccccc1/C=N/Nc1nnc2n1N=C(c1ccccc1)CS2`: the IC50 was found to be 55.42 µM.
